The NIST ThermoML archive (doi:10.1016/j.jct.2017.08.004)

Experiments:
[1] = Molar enthalpy of transition or fusion; conditions: Crystal; DSC
[2] = for molar entropy: 101.33 kPa; for Normal melting temperature: DTA

OC[C@@H](O)[C@H](O)[C@@H](O)CO [xylitol]
Conditions | Molar enthalpy of transition or fusion [kcal/mol]
[1] | 9.44

[2]
Conditions | molar entropy [J/K/mol]
1 K, Crystal, relaxation calorimetry | 0.0003173
2 K, Crystal, relaxation calorimetry | 0.002178
3 K, Crystal, relaxation calorimetry | 0.007217
4 K, Crystal, relaxation calorimetry | 0.01724
5 K, Crystal, relaxation calorimetry | 0.03429
6 K, Crystal, relaxation calorimetry | 0.06064
7 K, Crystal, relaxation calorimetry | 0.09884
8 K, Crystal, relaxation calorimetry | 0.1517
9 K, Crystal, relaxation calorimetry | 0.2221
10 K, Crystal, relaxation calorimetry | 0.3121
15 K, Crystal, relaxation calorimetry | 1.099
20 K, Crystal, relaxation calorimetry | 2.464
25 K, Crystal, relaxation calorimetry | 4.334
30 K, Crystal, relaxation calorimetry | 6.612
35 K, Crystal, relaxation calorimetry | 9.217
40 K, Crystal, relaxation calorimetry | 12.09
45 K, Crystal, relaxation calorimetry | 15.19
50 K, Crystal, relaxation calorimetry | 18.47
55 K, Crystal, relaxation calorimetry | 21.88
60 K, Crystal, relaxation calorimetry | 25.4
65 K, Crystal, relaxation calorimetry | 29.01
70 K, Crystal, relaxation calorimetry | 32.7
75 K, Crystal, relaxation calorimetry | 36.44
80 K, Crystal, relaxation calorimetry | 40.21
85 K, Crystal, relaxation calorimetry | 44.01
90 K, Crystal, relaxation calorimetry | 47.82
95 K, Crystal, relaxation calorimetry | 51.65
100 K, Crystal, relaxation calorimetry | 55.48
110 K, Crystal, relaxation calorimetry | 63.13
120 K, Crystal, relaxation calorimetry | 70.74
130 K, Crystal, relaxation calorimetry | 78.31
140 K, Crystal, relaxation calorimetry | 85.82
150 K, Crystal, relaxation calorimetry | 93.27
160 K, Crystal, relaxation calorimetry | 100.65
170 K, Crystal, relaxation calorimetry | 107.96
180 K, Crystal, relaxation calorimetry | 115.21
190 K, Crystal, relaxation calorimetry | 122.4
200 K, Crystal, relaxation calorimetry | 129.55
210 K, Crystal, relaxation calorimetry | 136.64
220 K, Crystal, relaxation calorimetry | 143.7
230 K, Crystal, relaxation calorimetry | 150.72
240 K, Crystal, relaxation calorimetry | 157.72
250 K, Crystal, relaxation calorimetry | 164.69
260 K, Crystal, relaxation calorimetry | 171.65
270 K, Crystal, relaxation calorimetry | 178.59
273.15 K, Crystal, relaxation calorimetry | 180.78
280 K, Crystal, relaxation calorimetry | 185.53
290 K, Crystal, relaxation calorimetry | 192.47
298.15 K, Crystal, relaxation calorimetry | 198.13
300 K, Crystal, relaxation calorimetry | 199.41
305 K, Crystal, Small sample (50 mg) DSC | 202.93
310 K, Crystal, Small sample (50 mg) DSC | 206.47
315 K, Crystal, Small sample (50 mg) DSC | 210.02
320 K, Crystal, Small sample (50 mg) DSC | 213.58
325 K, Crystal, Small sample (50 mg) DSC | 217.15
330 K, Crystal, Small sample (50 mg) DSC | 220.72
335 K, Crystal, Small sample (50 mg) DSC | 224.31
340 K, Crystal, Small sample (50 mg) DSC | 227.9
345 K, Crystal, Small sample (50 mg) DSC | 231.52
350 K, Crystal, Small sample (50 mg) DSC | 235.17
355 K, Crystal, Small sample (50 mg) DSC | 238.92
360 K, Crystal, Small sample (50 mg) DSC | 243.05
380 K, Liquid, Small sample (50 mg) DSC | 367.99
385 K, Liquid, Small sample (50 mg) DSC | 373.77
390 K, Liquid, Small sample (50 mg) DSC | 379.42
395 K, Liquid, Small sample (50 mg) DSC | 385
400 K, Liquid, Small sample (50 mg) DSC | 390.52
405 K, Liquid, Small sample (50 mg) DSC | 395.99
410 K, Liquid, Small sample (50 mg) DSC | 401.41
415 K, Liquid, Small sample (50 mg) DSC | 406.78
420 K, Liquid, Small sample (50 mg) DSC | 412.1
425 K, Liquid, Small sample (50 mg) DSC | 417.37
430 K, Liquid, Small sample (50 mg) DSC | 422.59
435 K, Liquid, Small sample (50 mg) DSC | 427.75

Conditions | Normal melting temperature [°C]
[2], Crystal | 93.0

O[C@H]1[C@H](O)[C@@H](O)[C@H](O)[C@@H](O)[C@H]1O [cis-1,2,3,5-trans-4,6-cyclohexanehexol]
Conditions | Molar enthalpy of transition or fusion [kcal/mol]
[1] | 12

[2]
Conditions | molar entropy [J/K/mol]
1 K, Crystal, relaxation calorimetry | 0.001133
2 K, Crystal, relaxation calorimetry | 0.00457
3 K, Crystal, relaxation calorimetry | 0.01283
4 K, Crystal, relaxation calorimetry | 0.0288
5 K, Crystal, relaxation calorimetry | 0.05587
6 K, Crystal, relaxation calorimetry | 0.09786
7 K, Crystal, relaxation calorimetry | 0.1588
8 K, Crystal, relaxation calorimetry | 0.2429
9 K, Crystal, relaxation calorimetry | 0.3528
10 K, Crystal, relaxation calorimetry | 0.4907
15 K, Crystal, relaxation calorimetry | 1.619
20 K, Crystal, relaxation calorimetry | 3.401
25 K, Crystal, relaxation calorimetry | 5.648
30 K, Crystal, relaxation calorimetry | 8.19
35 K, Crystal, relaxation calorimetry | 10.93
40 K, Crystal, relaxation calorimetry | 13.82
45 K, Crystal, relaxation calorimetry | 16.84
50 K, Crystal, relaxation calorimetry | 19.96
55 K, Crystal, relaxation calorimetry | 23.14
60 K, Crystal, relaxation calorimetry | 26.38
65 K, Crystal, relaxation calorimetry | 29.66
70 K, Crystal, relaxation calorimetry | 33
75 K, Crystal, relaxation calorimetry | 36.38
80 K, Crystal, relaxation calorimetry | 39.8
85 K, Crystal, relaxation calorimetry | 43.26
90 K, Crystal, relaxation calorimetry | 46.76
95 K, Crystal, relaxation calorimetry | 50.29
100 K, Crystal, relaxation calorimetry | 53.84
110 K, Crystal, relaxation calorimetry | 61.01
120 K, Crystal, relaxation calorimetry | 68.23
130 K, Crystal, relaxation calorimetry | 75.5
140 K, Crystal, relaxation calorimetry | 82.8
150 K, Crystal, relaxation calorimetry | 90.1
160 K, Crystal, relaxation calorimetry | 97.42
170 K, Crystal, relaxation calorimetry | 104.72
180 K, Crystal, relaxation calorimetry | 112.03
190 K, Crystal, relaxation calorimetry | 119.33
200 K, Crystal, relaxation calorimetry | 126.62
210 K, Crystal, relaxation calorimetry | 133.91
220 K, Crystal, relaxation calorimetry | 141.19
230 K, Crystal, relaxation calorimetry | 148.47
240 K, Crystal, relaxation calorimetry | 155.74
250 K, Crystal, relaxation calorimetry | 163.02
260 K, Crystal, relaxation calorimetry | 170.3
270 K, Crystal, relaxation calorimetry | 177.58
273.15 K, Crystal, relaxation calorimetry | 179.88
280 K, Crystal, relaxation calorimetry | 184.87
290 K, Crystal, relaxation calorimetry | 192.17
298.15 K, Crystal, relaxation calorimetry | 198.12
300 K, Crystal, relaxation calorimetry | 199.48
305 K, Crystal, Small sample (50 mg) DSC | 203.13
310 K, Crystal, Small sample (50 mg) DSC | 206.81
315 K, Crystal, Small sample (50 mg) DSC | 210.5
320 K, Crystal, Small sample (50 mg) DSC | 214.2
325 K, Crystal, Small sample (50 mg) DSC | 217.91
330 K, Crystal, Small sample (50 mg) DSC | 221.64
335 K, Crystal, Small sample (50 mg) DSC | 225.37
340 K, Crystal, Small sample (50 mg) DSC | 229.11
345 K, Crystal, Small sample (50 mg) DSC | 232.86
350 K, Crystal, Small sample (50 mg) DSC | 236.62
355 K, Crystal, Small sample (50 mg) DSC | 240.38
360 K, Crystal, Small sample (50 mg) DSC | 244.15
365 K, Crystal, Small sample (50 mg) DSC | 247.92
370 K, Crystal, Small sample (50 mg) DSC | 251.69
375 K, Crystal, Small sample (50 mg) DSC | 255.47
380 K, Crystal, Small sample (50 mg) DSC | 259.25
385 K, Crystal, Small sample (50 mg) DSC | 263.03
390 K, Crystal, Small sample (50 mg) DSC | 266.82
395 K, Crystal, Small sample (50 mg) DSC | 270.6
400 K, Crystal, Small sample (50 mg) DSC | 274.38
405 K, Crystal, Small sample (50 mg) DSC | 278.16
410 K, Crystal, Small sample (50 mg) DSC | 281.94
415 K, Crystal, Small sample (50 mg) DSC | 285.72
420 K, Crystal, Small sample (50 mg) DSC | 289.5
425 K, Crystal, Small sample (50 mg) DSC | 293.27
430 K, Crystal, Small sample (50 mg) DSC | 297.05
435 K, Crystal, Small sample (50 mg) DSC | 300.82
440 K, Crystal, Small sample (50 mg) DSC | 304.59
445 K, Crystal, Small sample (50 mg) DSC | 308.35
450 K, Crystal, Small sample (50 mg) DSC | 312.12
455 K, Crystal, Small sample (50 mg) DSC | 315.89
460 K, Crystal, Small sample (50 mg) DSC | 319.66
465 K, Crystal, Small sample (50 mg) DSC | 323.43
470 K, Crystal, Small sample (50 mg) DSC | 327.21
475 K, Crystal, Small sample (50 mg) DSC | 331
480 K, Crystal, Small sample (50 mg) DSC | 334.8
485 K, Crystal, Small sample (50 mg) DSC | 338.61
490 K, Crystal, Small sample (50 mg) DSC | 342.46
495 K, Crystal, Small sample (50 mg) DSC | 346.55
510 K, Liquid, Small sample (50 mg) DSC | 453.9
515 K, Liquid, Small sample (50 mg) DSC | 458.89
520 K, Liquid, Small sample (50 mg) DSC | 463.79
525 K, Liquid, Small sample (50 mg) DSC | 468.65
530 K, Liquid, Small sample (50 mg) DSC | 473.46
535 K, Liquid, Small sample (50 mg) DSC | 478.23
540 K, Liquid, Small sample (50 mg) DSC | 482.95

Conditions | Normal melting temperature [°C]
[2], Crystal | 224.58
